The NIST ThermoML archive (doi:10.1016/j.fluid.2010.10.028)

Test: xn = mol fraction of the nth substance listed
Conditions: Liquid, Vibrating tube method

CC(C)=O [acetone] + CCCCCCC
Conditions	mass density [kg/m3]
347.63 K, 54850 kPa, x1 = 0.492	716.07
347.63 K, 59840 kPa, x1 = 0.801	752.99
347.63 K, 59850 kPa, x1 = 0.492	719.82
347.63 K, 64820 kPa, x1 = 0.801	756.73
347.63 K, 64830 kPa, x1 = 0.492	723.43
347.63 K, 64920 kPa, x1 = 0.611	733.74
347.63 K, 69910 kPa, x1 = 0.801	760.44
347.63 K, 69920 kPa, x1 = 0.611	737.26
347.63 K, 69930 kPa, x1 = 0.492	726.98
347.63 K, 74910 kPa, x1 = 0.492	730.29
347.63 K, 79900 kPa, x1 = 0.492	733.48
347.63 K, 84860 kPa, x1 = 0.801	770.5
347.63 K, 84880 kPa, x1 = 0.492	736.56
347.63 K, 89840 kPa, x1 = 0.801	773.63
347.63 K, 89860 kPa, x1 = 0.492	739.56
347.63 K, 94820 kPa, x1 = 0.801	776.66
347.63 K, 104780 kPa, x1 = 0.801	782.49
347.63 K, 104800 kPa, x1 = 0.492	747.95
347.63 K, 109760 kPa, x1 = 0.611	761.37
347.63 K, 109760 kPa, x1 = 0.801	785.29
347.63 K, 109770 kPa, x1 = 0.492	750.58
347.63 K, 114860 kPa, x1 = 0.801	788.08
347.63 K, 119840 kPa, x1 = 0.801	790.72
347.63 K, 124840 kPa, x1 = 0.492	758.13
347.63 K, 124840 kPa, x1 = 0.611	769.09
347.63 K, 129860 kPa, x1 = 0.492	760.49
347.63 K, 129860 kPa, x1 = 0.801	795.81
347.64 K, 14870 kPa, x1 = 0.611	686.95
347.64 K, 19860 kPa, x1 = 0.611	693.03
347.64 K, 24870 kPa, x1 = 0.611	698.69
347.64 K, 29860 kPa, x1 = 0.611	703.93
347.64 K, 34870 kPa, x1 = 0.611	708.89
347.64 K, 39870 kPa, x1 = 0.611	713.55
347.64 K, 44850 kPa, x1 = 0.611	717.99
347.64 K, 49850 kPa, x1 = 0.611	722.19
347.64 K, 54850 kPa, x1 = 0.611	726.18
347.64 K, 59940 kPa, x1 = 0.611	730.09
347.64 K, 74910 kPa, x1 = 0.611	740.63
347.64 K, 79900 kPa, x1 = 0.611	743.88
347.64 K, 84880 kPa, x1 = 0.611	747.05
347.64 K, 89870 kPa, x1 = 0.611	750.1
347.64 K, 94840 kPa, x1 = 0.611	753.04
347.64 K, 94850 kPa, x1 = 0.492	742.44
347.64 K, 99820 kPa, x1 = 0.492	745.23
347.64 K, 99820 kPa, x1 = 0.611	755.91
347.64 K, 104780 kPa, x1 = 0.611	758.67
347.64 K, 114850 kPa, x1 = 0.492	753.18
347.64 K, 114870 kPa, x1 = 0.611	764.04
347.64 K, 119840 kPa, x1 = 0.611	766.59
347.64 K, 119860 kPa, x1 = 0.492	755.69
347.64 K, 129860 kPa, x1 = 0.611	771.5
357.54 K, 1050 kPa, x1 = 0.7024	664.83
357.54 K, 4810 kPa, x1 = 0.7024	671.47
357.54 K, 9820 kPa, x1 = 0.7024	679.43
357.54 K, 14810 kPa, x1 = 0.7024	686.58
357.54 K, 14860 kPa, x1 = 0.611	677.52
357.54 K, 19810 kPa, x1 = 0.7024	693.14
357.54 K, 24800 kPa, x1 = 0.7024	699.18
357.54 K, 29900 kPa, x1 = 0.7024	704.93
357.54 K, 34880 kPa, x1 = 0.7024	710.21
357.54 K, 39870 kPa, x1 = 0.7024	715.16
357.54 K, 44860 kPa, x1 = 0.7024	719.83
357.54 K, 49860 kPa, x1 = 0.7024	724.29
357.54 K, 54850 kPa, x1 = 0.7024	728.52
357.54 K, 59830 kPa, x1 = 0.7024	732.55
357.54 K, 64830 kPa, x1 = 0.7024	736.42
357.54 K, 69820 kPa, x1 = 0.7024	740.13
357.54 K, 74790 kPa, x1 = 0.7024	743.68
357.54 K, 84760 kPa, x1 = 0.7024	750.39
357.54 K, 94820 kPa, x1 = 0.7024	756.74
357.55 K, 1070 kPa, x1 = 0.611	655.88
357.55 K, 1080 kPa, x1 = 0.492	647.12
357.55 K, 1300 kPa, x1 = 0.4	692.98
357.55 K, 1300 kPa, x1 = 0.8992	692.98
357.55 K, 4850 kPa, x1 = 0.492	653.64
357.55 K, 4860 kPa, x1 = 0.611	662.51
357.55 K, 5030 kPa, x1 = 0.4	699.4
357.55 K, 5030 kPa, x1 = 0.8992	699.4
357.55 K, 9850 kPa, x1 = 0.492	661.43
357.55 K, 9860 kPa, x1 = 0.611	670.41
357.55 K, 10030 kPa, x1 = 0.4	707.18
357.55 K, 10030 kPa, x1 = 0.8992	707.18
357.55 K, 14850 kPa, x1 = 0.492	668.43
357.55 K, 15010 kPa, x1 = 0.4	714.27
357.55 K, 15010 kPa, x1 = 0.8992	714.27
357.55 K, 19840 kPa, x1 = 0.492	674.79
357.55 K, 19870 kPa, x1 = 0.611	684.02
357.55 K, 20010 kPa, x1 = 0.4	720.81
357.55 K, 20010 kPa, x1 = 0.8992	720.81
357.55 K, 24840 kPa, x1 = 0.492	680.72
357.55 K, 24850 kPa, x1 = 0.611	689.97
